In US20230117470A1, “SUBSTITUTED PYRAZOLE COMPOUNDS AS TOLL RECEPTOR INHIBITORS” (BRISTOL-MYERS SQUIBB COMPANY, priority 2019, published 2023):

Tests used:
Type in all cases: cell-based
human TLR7 = biological target: T1, human TLR7 (Homo sapiens, UniProt Q9NYK1); assay: TLR7 inhibition reporter assay (HEK-Blue cells, SEAP reporter, gardiquimod stimulation); conditions: HEK-Blue cells overexpressing human TLR7, SEAP reporter, gardiquimod 7.5 μM
T1 construct: host or cells: HEK-Blue cells
T1 sequence (Q9NYK1 27-1049): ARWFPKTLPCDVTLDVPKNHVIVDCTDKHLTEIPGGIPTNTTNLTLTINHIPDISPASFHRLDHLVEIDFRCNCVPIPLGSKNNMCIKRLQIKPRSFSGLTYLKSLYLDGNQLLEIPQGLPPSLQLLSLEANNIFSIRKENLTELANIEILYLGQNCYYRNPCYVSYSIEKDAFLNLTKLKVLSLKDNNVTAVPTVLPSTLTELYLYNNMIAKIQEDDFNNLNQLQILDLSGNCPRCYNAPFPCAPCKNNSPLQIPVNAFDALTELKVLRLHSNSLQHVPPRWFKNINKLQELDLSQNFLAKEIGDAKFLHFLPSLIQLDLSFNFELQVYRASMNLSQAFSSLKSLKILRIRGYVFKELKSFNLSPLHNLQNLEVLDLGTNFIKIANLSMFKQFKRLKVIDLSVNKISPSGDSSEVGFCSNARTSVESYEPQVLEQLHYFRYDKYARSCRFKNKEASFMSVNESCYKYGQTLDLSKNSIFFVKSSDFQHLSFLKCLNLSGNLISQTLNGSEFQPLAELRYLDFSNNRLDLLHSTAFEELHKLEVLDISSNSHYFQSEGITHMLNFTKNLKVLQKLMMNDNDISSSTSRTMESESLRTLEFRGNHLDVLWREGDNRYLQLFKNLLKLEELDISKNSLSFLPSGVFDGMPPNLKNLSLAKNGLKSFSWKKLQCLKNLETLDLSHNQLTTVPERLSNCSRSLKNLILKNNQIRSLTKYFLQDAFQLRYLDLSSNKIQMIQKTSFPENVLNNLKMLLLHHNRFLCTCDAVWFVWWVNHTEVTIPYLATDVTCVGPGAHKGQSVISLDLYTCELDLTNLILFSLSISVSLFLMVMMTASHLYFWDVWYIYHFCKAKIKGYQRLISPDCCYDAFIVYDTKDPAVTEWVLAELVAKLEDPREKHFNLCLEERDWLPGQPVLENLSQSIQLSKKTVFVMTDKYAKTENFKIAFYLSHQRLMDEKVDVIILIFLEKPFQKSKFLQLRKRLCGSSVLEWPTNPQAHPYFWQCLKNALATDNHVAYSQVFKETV
Summary of the method: (§1)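 30 min RT cpd pre-incubation (0.05 nM–50 μM final dose response) → agonist: gardiquimod 7.5 μM / R848 15.9 μM / ODN2006 5 nM for TLR7/8/9 resp. → 22 h, 37° C → SEAP via detection medium. % inhibition vs agonist+DMSO and reference inhibitor controls.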

human TLR8 = biological target: T2, human TLR8 (Homo sapiens, UniProt Q9NR97); assay: TLR8 inhibition reporter assay (HEK-Blue cells, SEAP reporter, R848 stimulation); conditions: HEK-Blue cells overexpressing human TLR8, SEAP reporter, R848 15.9 μM
T2 construct: host or cells: HEK-Blue cells
T2 sequence (Q9NR97 27-1041): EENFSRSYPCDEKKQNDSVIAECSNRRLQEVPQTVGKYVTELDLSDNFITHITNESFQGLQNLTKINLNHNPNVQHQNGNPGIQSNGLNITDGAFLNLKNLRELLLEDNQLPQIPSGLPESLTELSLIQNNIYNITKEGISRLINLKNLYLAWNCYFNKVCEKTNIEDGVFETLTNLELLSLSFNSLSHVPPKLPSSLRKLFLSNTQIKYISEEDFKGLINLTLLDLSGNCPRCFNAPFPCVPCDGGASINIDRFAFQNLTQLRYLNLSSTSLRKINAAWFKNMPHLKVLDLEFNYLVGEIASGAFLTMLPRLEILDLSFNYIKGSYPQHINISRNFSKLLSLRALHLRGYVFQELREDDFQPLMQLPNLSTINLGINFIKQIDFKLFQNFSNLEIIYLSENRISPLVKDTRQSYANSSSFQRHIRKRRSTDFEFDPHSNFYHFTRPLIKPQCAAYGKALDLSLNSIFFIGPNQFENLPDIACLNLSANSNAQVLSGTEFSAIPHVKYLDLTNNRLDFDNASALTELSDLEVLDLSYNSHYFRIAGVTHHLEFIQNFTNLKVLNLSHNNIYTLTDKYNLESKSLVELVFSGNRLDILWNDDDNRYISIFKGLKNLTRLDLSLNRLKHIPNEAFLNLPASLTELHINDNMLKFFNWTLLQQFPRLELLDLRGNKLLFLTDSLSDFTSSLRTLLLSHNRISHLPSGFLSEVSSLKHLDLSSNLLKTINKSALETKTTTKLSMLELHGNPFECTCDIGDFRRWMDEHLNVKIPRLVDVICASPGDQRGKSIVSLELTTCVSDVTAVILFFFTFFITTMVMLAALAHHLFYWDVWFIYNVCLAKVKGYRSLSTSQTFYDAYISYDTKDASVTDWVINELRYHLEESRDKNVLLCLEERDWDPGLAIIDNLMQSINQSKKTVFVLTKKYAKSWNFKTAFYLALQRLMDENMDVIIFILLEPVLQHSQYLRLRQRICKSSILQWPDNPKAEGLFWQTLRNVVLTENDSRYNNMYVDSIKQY
Summary of the method: as §1

human TLR9 = biological target: T3, human TLR9 (Homo sapiens, UniProt Q9NR96); assay: TLR9 inhibition reporter assay (HEK-Blue cells, SEAP reporter, ODN2006 stimulation); conditions: HEK-Blue cells overexpressing human TLR9, SEAP reporter, ODN2006 5 nM
T3 construct: host or cells: HEK-Blue cells
T3 sequence (Q9NR96 26-1032): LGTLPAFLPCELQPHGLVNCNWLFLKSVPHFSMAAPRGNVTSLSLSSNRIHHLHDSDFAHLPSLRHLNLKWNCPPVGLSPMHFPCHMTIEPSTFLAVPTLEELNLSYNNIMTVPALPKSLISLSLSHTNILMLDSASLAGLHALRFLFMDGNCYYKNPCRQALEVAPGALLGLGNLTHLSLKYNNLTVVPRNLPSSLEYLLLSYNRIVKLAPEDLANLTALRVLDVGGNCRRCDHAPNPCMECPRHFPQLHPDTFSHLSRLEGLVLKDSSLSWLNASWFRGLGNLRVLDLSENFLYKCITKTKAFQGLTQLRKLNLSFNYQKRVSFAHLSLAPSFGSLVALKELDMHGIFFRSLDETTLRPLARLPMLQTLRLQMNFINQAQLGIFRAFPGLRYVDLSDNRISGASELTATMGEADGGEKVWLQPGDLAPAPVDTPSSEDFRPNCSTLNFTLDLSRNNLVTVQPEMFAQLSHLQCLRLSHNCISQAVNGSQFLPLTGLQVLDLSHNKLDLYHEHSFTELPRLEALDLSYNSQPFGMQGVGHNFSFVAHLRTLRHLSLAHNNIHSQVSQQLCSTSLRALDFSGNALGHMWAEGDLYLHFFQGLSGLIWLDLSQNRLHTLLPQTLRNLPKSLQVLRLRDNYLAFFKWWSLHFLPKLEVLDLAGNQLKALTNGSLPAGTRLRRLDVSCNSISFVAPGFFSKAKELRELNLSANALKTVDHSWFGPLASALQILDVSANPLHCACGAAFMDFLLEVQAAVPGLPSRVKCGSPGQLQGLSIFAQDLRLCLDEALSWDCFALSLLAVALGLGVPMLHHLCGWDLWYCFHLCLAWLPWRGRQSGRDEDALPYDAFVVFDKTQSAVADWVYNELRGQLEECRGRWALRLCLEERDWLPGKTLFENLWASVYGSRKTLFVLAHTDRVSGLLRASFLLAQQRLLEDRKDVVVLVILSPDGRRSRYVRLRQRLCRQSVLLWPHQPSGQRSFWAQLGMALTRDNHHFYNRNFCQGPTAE
Summary of the method: as §1

SMILES | IC50 (human TLR7) [nM] | IC50 (human TLR8) [nM] | IC50 (human TLR9) [nM]
Cc1cc(-c2c(C(C)C)c(C(=O)NC3CCN(C(C)C)CC3)nn2C)cn2ncnc12 [Example 188, 4-isopropyl-N-(1-isopropylpiperidin-4-yl)-1-methyl-5-(8-methyl-[1,2,4]triazolo[1,5-a]pyridin-6-yl)-1H-pyrazole-3-carboxamide] | 0.71 | 0.58 | 10800
Cc1c(C(=O)NC2CCN(C)CC2)n[nH]c1-c1cc(C)c2ncnn2c1 [compound 180] | 3.54 | 3.7 | 5280
CC(C)c1c(C(=O)NC2CCN(C)CC2)n[nH]c1-c1cn(C)c2ncccc12 [Example 41] | 1.19 | 2.66 | 8430
Cc1cc(-c2[nH]nc(C(=O)N[C@H]3CC[C@@H](NCc4cncnc4)CC3)c2C(C)C)cn2ncnc12 [Example 102] | 0.37 | 14 | 3890
Cc1cc(-c2[nH]nc(C(=O)N[C@H]3CC[C@H](NC4CCOCC4)CC3)c2C(C)C)cn2ncnc12 [Example 116] | 3.11 | 1.91 | 3880
Cc1cc(-c2[nH]nc(C3CCC(N(C)CC(=O)N(C)C)CC3)c2C(C)C)cn2ncnc12 (single isomer, unassigned) [compound 299] | 1.42 | 0.72 | 12700
CC(C)c1c(C(=O)NC2CCN(C(C)C)CC2)n[nH]c1-c1cn(C)c2ncccc12 [Example 42] | 2.99 | 6.77 | 19000
COc1c(C)c(-c2[nH]nc(-c3ccc(C4CCN(CC5CCOCC5)CC4)cn3)c2C(C)C)cn2ncnc12 [Example 388] | 22.4 | 37.4 | 16100
Cc1cc(-c2[nH]nc(C(=O)NC3CCN(C(=O)OC(C)(C)C)CC3)c2C(C)C)cn2ncnc12 [Example 1, tert-butyl 4-(4-isopropyl-5-(8-methyl-[1,2,4]triazolo[1,5-a]pyridin-6-yl)-1H-pyrazole-3-carboxamido)piperidine-1-carboxylate] | 2.01 | 8.14 | 760
Cc1cc(-c2[nH]nc(C(=O)NC3CCN(CC4CCOCC4)CC3)c2CC(F)(F)F)cn2ncnc12 [Example 204] | 1.5 | 0.63 | 17800
COc1cc(-c2[nH]nc(-c3cnc(C4CCN(CCS(C)(=O)=O)CC4)cn3)c2C(C)C)cn2ncnc12 [Example 397] | 221 | 463 | > 50000
CCN1CC(C(=O)N(C)C2CCC(c3n[nH]c(-c4cc(C)c5ncnn5c4)c3C(C)C)CC2)C1 (single isomer, unassigned) [Example 305] | 311 | 70 | > 50000
Cc1cc(-c2[nH]nc(C3CCC(NCC(F)F)CC3)c2C(C)C)cn2ncnc12 (single isomer, unassigned) [Example 279, N-(2,2-difluoroethyl)-4-(4-isopropyl-5-(8-methyl-[1,2,4]triazolo[1,5-a]pyridin-6-yl)-1H-pyrazol-3-yl)cyclohexan-1-amine] | 11 | 1.08 | 23900

Other lines, results leading:

IC50 (human TLR7) [nM] | IC50 (human TLR8) [nM] | IC50 (human TLR9) [nM] | SMILES
25.2 | 43.9 | 11500 | COc1cc(-c2[nH]nc(-c3cnc(C4CCN(C5CCC5)CC4)cn3)c2C(C)C)cn2ncnc12 [Example 387]
1280 | > 3130 | 38100 | Cc1cc(-c2[nH]nc(-c3ccc(C4CCN(C)CC4)nn3)c2C(C)C)cn2ncnc12 [Example 357]
29.4 | 12.2 | > 50000 | COc1cc(-c2[nH]nc(-c3cnc(C4CCN(CC5CC5)CC4)cn3)c2C(C)C)cn2ncnc12 [Example 378]
0.89 | 7.55 | 3390 | Cc1cc(-c2[nH]nc(C(=O)NC3CCN(CCC(C)(C)C)CC3)c2C(C)C)cn2ncnc12 [Example 75]
637 | 713 | 46200 | Cc1cc(-c2[nH]nc(-c3cn4c(n3)CNCC4)c2C(C)C)cn2ncnc12 [Example 219]
91 | 1.85 | > 50000 | CCCN1CCC(c2ccc(-c3n[nH]c(-c4cc(OC)c5ncnn5c4)c3C(C)C)nc2)CC1 [Example 349]
3.59 | 16.9 | 5710 | Cc1cc(-c2[nH]nc(C(=O)NC3CCCNC3)c2C(C)C)cn2ncnc12 (stereo not drawn) [Example 66]
0.9 | 0.84 | 9110 | Cc1cc(-c2[nH]nc(C(=O)N[C@H]3CC[C@@H](N(C)C)CC3)c2C(C)C)cn2ncnc12 [Example 84]
3.09 | 2.74 | 43500 | Cc1cc(-c2[nH]nc(C(=O)N(C)CCC#N)c2C(C)C)cn2ncnc12 [Example 16]
1.45 | 0.43 | 19300 | CCN1CCC(c2ccc(-c3n[nH]c(-c4cc(C)c5ncnn5c4)c3C(C)C)cc2)CC1 [Example 310]
